# The supplement of paper PMC4862054
# Assays:
# Experiment in all cases: normalised response (% of control), CellTiter-Glo; higher = more viable cells (100 = DMSO, 0 = benzethonium chloride kill control)
# Details in all cases: incubation time: 72 h
# BT-474 = system: BT-474
# Summary of the method: (§1)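 Values are normalised signals, each belonging to one concentration of the series. Breast cancer cells (20 µl suspension) were seeded into 384-well plates with compound at 5 concentrations in 10-fold steps over a compound-specific 10,000-fold range and incubated 72 h. Readouts were CellTox Green fluorescence (485/520 nm), then CellTiter-Glo luminescence after 10 min at room temperature, with each plate set to 0.1 % DMSO as 100 and a positive kill control as 0.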
# BT-549 = system: BT-549
# Summary of the method: as §1
# CAL-120 = system: CAL-120
# Summary of the method: as §1
# CAL-148 = system: CAL-148
# Summary of the method: as §1
# CAL-51 = system: CAL-51
# Summary of the method: as §1
# CAL-85-1 = system: CAL-85-1
# Summary of the method: as §1
# DU-4475 = system: DU-4475
# Summary of the method: as §1
# HCC1143 = system: HCC1143
# Summary of the method: as §1
# HCC1599 = system: HCC1599
# Summary of the method: as §1
# HCC1937 = system: HCC1937
# Summary of the method: as §1
# HDQ-P1 = system: HDQ-P1
# Summary of the method: as §1
# Hs578T = system: Hs578T
# Summary of the method: as §1
# MCF-10A = system: MCF-10A
# Summary of the method: as §1
# MDA-MB-231 = system: MDA-MB-231
# Summary of the method: as §1
# MDA-MB-436 = system: MDA-MB-436
# Summary of the method: as §1
# MDA-MB-453 = system: MDA-MB-453
# Summary of the method: as §1
# MDA-MB-468 = system: MDA-MB-468
# Summary of the method: as §1
# MFM-223 = system: MFM-223
# Summary of the method: as §1
# SK-BR-3 = system: SK-BR-3
# Summary of the method: as §1
Structure (SMILES),normalised response (BT-474),normalised response (BT-549),normalised response (CAL-120),normalised response (CAL-148),normalised response (CAL-51),normalised response (CAL-85-1),normalised response (DU-4475),normalised response (HCC1143),normalised response (HCC1599),normalised response (HCC1937),normalised response (HDQ-P1),normalised response (Hs578T),normalised response (MCF-10A),normalised response (MDA-MB-231),normalised response (MDA-MB-436),normalised response (MDA-MB-453),normalised response (MDA-MB-468),normalised response (MFM-223),normalised response (SK-BR-3)
Cc1c(C(=O)Nc2ccc(N3C[C@@H](C)O[C@@H](C)C3)nc2)cccc1-c1ccc(OC(F)(F)F)cc1 [Erismodegib] (1 nM),93.9%,93.8%,99.2%,91.7%,88.2%,97.8%,97.5%,93.8%,102%,96.1%,94.1%,91.6%,84.4%,99%,85.3%,96.1%,99.8%,96.7%,91.3%
Cc1c(C(=O)Nc2ccc(N3C[C@@H](C)O[C@@H](C)C3)nc2)cccc1-c1ccc(OC(F)(F)F)cc1 [Erismodegib] (10 nM),92.9%,99.6%,91.7%,94.6%,127%,95.2%,101%,93.4%,104%,96.3%,95.5%,101%,86%,99.2%,91.9%,81.8%,86.6%,91.9%,69.9%
CC(C)C(=O)Nc1ccc([N+](=O)[O-])c(C(F)(F)F)c1 [Flutamide] (10 nM),101%,96.4%,97.6%,92.1%,126%,96.2%,102%,98.6%,105%,102%,98.4%,98.6%,103%,95.7%,99.8%,109%,96%,99.6%,124%
COc1cc2c(Oc3ccc(NC(=O)C4(C(=O)Nc5ccc(F)cc5)CC4)cc3F)ccnc2cc1OCCCN1CCOCC1 [Foretinib] (1 nM),104%,98.4%,99.7%,101%,106%,94.8%,100%,102%,94.3%,95%,97.7%,97.4%,102%,99%,99.2%,108%,99.4%,102%,97.6%
COc1cc(Nc2ncc(F)c(Nc3ccc4c(n3)N(COP(=O)(O)O)C(=O)C(C)(C)O4)n2)cc(OC)c1OC [Fostamatinib] (0.25 nM),97.2%,107%,107%,93.3%,83.5%,99.3%,96.2%,100%,111%,106%,99.1%,99.2%,103%,101%,110%,99.4%,97.4%,94.9%,98%
COc1cc(Nc2ncc(F)c(Nc3ccc4c(n3)N(COP(=O)(O)O)C(=O)C(C)(C)O4)n2)cc(OC)c1OC [Fostamatinib] (2.5 nM),103%,102%,105%,97.7%,73.5%,99.7%,93.8%,102%,87.7%,99.6%,110%,102%,97.7%,96.2%,92.9%,104%,96.7%,98.8%,92.7%
CC(C)NC[C@@H](C(=O)N1CCN(c2ncnc3c2[C@H](C)C[C@H]3O)CC1)c1ccc(Cl)cc1 [GDC-0068] (1 nM),99.3%,97.7%,95.9%,95.3%,71%,98.9%,99.9%,97.3%,100%,102%,99.8%,101%,106%,103%,96.9%,102%,94.1%,98.9%,103%
CCCc1cc(C)[nH]c(=O)c1CNC(=O)c1cc(-c2ccnc(N3CCN(C)CC3)c2)cc2c1cnn2C(C)C [GSK343] (1 nM),94.2%,100%,95.5%,84.4%,116%,102%,92.7%,87.7%,80.2%,93.4%,98%,105%,99.5%,92.5%,97.3%,99.5%,89%,94.7%,91.9%
CCCc1cc(C)[nH]c(=O)c1CNC(=O)c1cc(-c2ccnc(N3CCN(C)CC3)c2)cc2c1cnn2C(C)C [GSK343] (10 nM),97.2%,96.5%,97%,80.2%,81.4%,91.6%,94%,104%,103%,103%,97.6%,101%,103%,91.7%,91.1%,94.2%,87.4%,93.3%,109%
NC(=O)NO [Hydroxyurea] (100 nM),99.5%,97.7%,97.8%,102%,89.7%,99.8%,101%,104%,94.1%,96%,97.3%,102%,104%,98.5%,96.3%,112%,101%,108%,93.5%
COc1cc2c(cc1-c1c(C)noc1C)ncc1[nH]c(=O)n([C@H](C)c3ccccn3)c12 [I-BET151] (1 nM),96.7%,99.7%,101%,104%,81.1%,103%,103%,105%,103%,96.6%,106%,101%,109%,99.5%,98.5%,102%,95.9%,97.8%,97.8%
CC(C)n1nc(-c2ccc3oc(N)nc3c2)c2c(N)ncnc21 [INK128] (0.1 nM),90.8%,93.9%,91%,92.2%,106%,96.6%,90.2%,86.4%,94.7%,89.1%,87.9%,96.3%,90.6%,92.1%,79.1%,101%,93.3%,89.8%,96%
CC(C)n1nc(-c2ccc3oc(N)nc3c2)c2c(N)ncnc21 [INK128] (1 nM),88.9%,89%,92.2%,93.2%,116%,96.7%,94.1%,94.5%,100%,96.9%,95.8%,98.9%,96.2%,95.9%,96.5%,88.3%,93.6%,90.1%,85.9%
O=NN(CCCl)C(=O)NC1CCCCC1 [Lomustine] (10 nM),105%,98.3%,98.3%,98.6%,120%,95%,102%,103%,83.8%,102%,102%,108%,107%,99.4%,95.2%,106%,92.5%,104%,90.8%
O=C(O)CC[C@H]1CC[C@@](c2cc(F)ccc2F)(S(=O)(=O)c2ccc(Cl)cc2)CC1 [MK-0752] (1 nM),103%,93%,102%,107%,87.3%,102%,104%,99.5%,97.5%,98.7%,95.6%,104%,113%,102%,101%,111%,98.5%,112%,102%
NC1(c2ccc(-c3nc4ccn5c(=O)[nH]nc5c4cc3-c3ccccc3)cc2)CCC1 [MK-2206] (1 nM),111%,92.9%,99.2%,112%,80.6%,95.9%,104%,103%,105%,92.6%,96.5%,96.5%,106%,103%,104%,100%,101%,109%,112%
NC(=O)c1cccc2cn(-c3ccc([C@@H]4CCCNC4)cc3)nc12 [MK-4827] (10 nM),110%,101%,107%,108%,125%,106%,104%,107%,104%,96.9%,93.7%,98.4%,114%,101%,107%,105%,98.6%,104%,83.4%
N[C@@H](Cc1ccc(N(CCCl)CCCl)cc1)C(=O)O [Melphalan] (1.25 nM),98.7%,97.8%,100%,93.2%,114%,96.5%,95.5%,98.7%,116%,103%,106%,109%,104%,100%,109%,93.3%,91.7%,95.1%,96.3%
N[C@@H](Cc1ccc(N(CCCl)CCCl)cc1)C(=O)O [Melphalan] (12.5 nM),103%,100%,101%,96.2%,75.2%,99.4%,99.3%,95.3%,133%,102%,103%,104%,101%,102%,103%,104%,95.4%,99.5%,95%
O=C(c1cc(Cc2n[nH]c(=O)c3ccccc23)ccc1F)N1CCN(C(=O)C2CC2)CC1 [Olaparib] (10 nM),97.1%,98.2%,93.2%,98.9%,110%,108%,102%,95.6%,113%,101%,96.2%,98.6%,99.5%,90.2%,91.8%,97.8%,101%,93%,100%
